These molecules were tested on SARS-CoV-2 (assay: Cytopathic effect (CPE) suppression effect confirmation test using HEK293T/ACE2-TMPRSS2 cells). Conditions: Severe acute respiratory syndrome coronavirus 2, HEK-293T, 72 h, read-out: EC50 (50% SARS-CoV-2 infected cell death inhibitory concentration), class, HEK293T/ACE2-TMPRSS2 cells, CPE suppression, CellTiter-Glo 2.0 after 3 days culture.
Assay type: cell-based
With `N#CCn1c(N2CC(F)(C3CC3)C2)c(-c2ccc(F)c(Cl)c2)c(=O)n(-c2cnc3cc(F)ccn23)c1=O` [Compound I-151] the EC50 was < 0.1 µM. With `Cc1cncc(-n2c(=O)c(Cc3cc(F)c(F)c(F)c3)c(N3CC[C@@H](C(N)=O)C3)n(CC#N)c2=O)c1` [Compound I-096] the EC50 was < 0.1 µM.

Same assay, conditions: Severe acute respiratory syndrome coronavirus 2, HEK-293T, 72 h; HEK293T/ACE2-TMPRSS2 cells, CPE suppression, CellTiter-Glo 2.0 after 3 days culture; read-out: EC50 (50% SARS-CoV-2 infected cell death inhibitory concentration), class
For `N#CCn1c(-c2cc3ccccc3s2)c(Sc2cc(F)c(F)c(F)c2)c(=O)n(-c2cncc(Cl)c2)c1=O` [Compound I-168], the EC50 was < 0.1 µM.

Same assay, conditions: Severe acute respiratory syndrome coronavirus 2, HEK-293T; 50% SARS-CoV-2 infected cell death inhibitory concentration; HEK293T/ACE2-TMPRSS2 cells; read-out: EC50
`N#CCn1c(N2CC3(C2)CC(F)(F)C3)c(-c2ccc(F)c(Cl)c2)c(=O)n(-c2cc(C#N)cnn2)c1=O` [Compound I-216] was tested, and the EC50 was < 0.1 µM. `N#CCn1c(-c2ccc(C3CC3)cc2)c(N2CCCCC2)c(=O)n(-c2cncc(Cl)c2)c1=O` [Compound I-265] was tested, and the EC50 was 0.1 to 1 µM. `Cn1ccc(-c2c(-c3ccc(F)c(Cl)c3)c(=O)n(-c3cncc(Cl)c3)c(=O)n2CC#N)cc1=O` [Compound I-303] was tested, and the EC50 was < 0.1 µM. In the case of `Cc1cncc(-n2c(=O)c(-c3ccc(F)c(Cl)c3)c(-c3cn[nH]c3)n(CC#N)c2=O)c1` [Compound I-279], the EC50 is reported as < 0.1 µM.

Each molecule was assayed against Recombinant SARS-CoV-2 3CL Protease (Severe acute respiratory syndrome coronavirus 2 (2019-nCoV) (SARS-CoV-2), UniProt P0DTD1) (assay: biochemical). Conditions: 50% SARS-CoV-2 3CL protease inhibitory concentration; read-out: IC50.
Assay type: biochemical
In the case of `N#CCn1c(N2CC3(C2)CC(F)(F)C3)c(-c2ccc(F)c(Cl)c2)c(=O)n(-c2cc(C#N)cnn2)c1=O` [Compound I-216], the IC50 is reported as < 0.01 µM. `N#CCn1c(N2CC(F)(C3CC3)C2)c(-c2ccc(F)c(Cl)c2)c(=O)n(-c2cnc3cc(F)ccn23)c1=O` [Compound I-151] was tested, and the IC50 was < 0.01 µM. For `N#CCn1c(-c2ccc(C3CC3)cc2)c(N2CCCCC2)c(=O)n(-c2cncc(Cl)c2)c1=O` [Compound I-265], the IC50 was 0.01 to 0.1 µM. For `Cn1ccc(-c2c(-c3ccc(F)c(Cl)c3)c(=O)n(-c3cncc(Cl)c3)c(=O)n2CC#N)cc1=O` [Compound I-303], the IC50 was < 0.01 µM. `Cc1cncc(-n2c(=O)c(-c3ccc(F)c(Cl)c3)c(-c3cn[nH]c3)n(CC#N)c2=O)c1` [Compound I-279] was tested, and the IC50 was < 0.01 µM. `N#CCn1c(-c2cc3ccccc3s2)c(Sc2cc(F)c(F)c(F)c2)c(=O)n(-c2cncc(Cl)c2)c1=O` [Compound I-168] was tested, and the IC50 was 0.01 to 0.1 µM. For `Cc1cncc(-n2c(=O)c(Cc3cc(F)c(F)c(F)c3)c(N3CC[C@@H](C(N)=O)C3)n(CC#N)c2=O)c1` [Compound I-096], the IC50 was < 0.01 µM.
